Key:
L1210 leukemic mice = conditions: cited from earlier work
[1] = system: fetal hemoglobin levels (Hb F); conditions: orally 8 mg/kg, repeatedly phlebotomized baboon; cited from earlier work
in vivo = conditions: dog
Procedure: Pentostatin was administered to IVAP beagle dogs (n=3) at 0.2 mg/kg via intravenous, oral and through previously implanted intestinal ports (jejunum, ileum and colon). Extravascular administration of pentostatin was done in saline water for infusion or in a pH=7 phosphate buffer solution to control the intestinal pH. Blood samples were taken systemic and through a port in the portal vein, plasma separated and kept frozen at −20° C. until analysis.
Six adult male beagle dogs (obtained from Summit Ridge Farms, Susquehanna, Pa.; between the ages of 1 and 5 years and weighed between 9 and 16 kg) were prepared with indwelling catheters in the Upper and Lower Small Intestines (USI and LSI), Colon (IC) and Portal Vein (PV) and were dosed with pentostatin at 0.2 mg/kg. The drug formulation was delivered either orally, intraveneously or, in most cases, through the indwelling ports and blood samples were drawn to determine the pharmacokinetics of each permutation. Systemic blood samples were collected from acutely placed IV catheters in the brachial vein, while PV samples were collected through the indwelling port and catheter. All blood samples were spun down, the plasma decanted, frozen and stored at −70 deg Celsius before subject to analysis.
The IVAP dog is prepared with indwelling catheters attached to subcutaneous ports (Titanium Vascular Access Portsg from Access Technologies in Skokie, Ill.) for delivery of drug formulations directly to various parts of the Gastrointestinal Tract. […] In addition, collecting blood samples directly from the portal vein during parenteral as well as oral and intestinal delivery can be combined with direct portal delivery studies to tweeze apart the first pass effects of both liver and intestinal cell enzymatic degradation effects on the drug being tested. Next, delivery of various formulations under different conditions can help in the development of effective oral delivery systems. Finally, delivery of absorption enhancers at various intervals, prior to the delivery of the drug, can be used to determine the recovery time of intestinal wall integrity following dosing with a particular formulation.
IVAP dogs are fitted with three intestinal catheters, in addition to a portal vein catheter. Following induction of general anesthesia, the animal is placed in a supine position, scrubbed and prepped with betadine solution and draped under sterile conditions. A vertical midline incision is made through the skin and the abdominal cavity is entered. A 5F Heparin Coated CBAS® tubing, is inserted into the portal vein and secured with a purse string of 7-0 prolene suture. A small square of Surgicel® is placed over the insertion site and the fascia is closed over it to prevent leakage or dislodging of the tubing. The Upper Small Intestine (USI) port tubing is inserted 10 cm distal to the ligament of Treitz. The small bowel is then measured from the pyloric sphincter to the ileocecal valve and the Lower Small Intestine (LSI) port tubing is inserted one third of the way back from the ileocecal valve. The colon tubing is inserted 10 cm distal to the ileocecal valve (Colon). 7F Sylastic® tubing is used for each intestinal catheter. […] The tubings are secured with a silk “purse-string” suture and the modified Witzel Tunnel technique. After placement of the tubes, the bowel is secured to the abdominal wall and the proximal ends of the tubings are tunneled out of the abdominal cavity and into a subcutaneous pocket on the caudal aspect of the right chest, along with the PV catheter. The abdominal incision is closed in two layers. The Linea Alba is approximated with 0 Vicryl and the skin is closed with 2-0 Vicryl.
In case of IV administration, the drug is dissolved in normal sterile saline to a concentration of 1 mg/ml and is passed through a […] sterilizing filter prior to administration to the brachial vein.

[2] = Physico-chemical properties of pentostatin (solubility, stability); format: physicochemical

| Compound | activity parenteral versus oral (L1210 leukemic mice) | elevation in the fetal hemoglobin levels (Hb F) [1] | AUC2/AUC1 (portal vein) (in vivo; po) | Relative bioavailability in reference to oral (in vivo; male, beagle) | Ratio Treat2/Treat1 of systemic bioavailability (in vivo; male, beagle, po) | bioavailability % change, AVERAGE (in vivo; male, beagle, po) | decrease in the systemic pentostatin bioavailability (in vivo; male, beagle, po) | Mean systemic AUC0-inf (in vivo; male, beagle, po, 0.2 mg/kg) | bioavailability (in vivo; male, beagle, po, 0.2 mg/kg, Individual bioavailability % change) | AUC(0-inf) (in vivo; male, beagle, po, 0.2 mg/kg, Mean systemic AUC0-inf) | bioavailability (in vivo; male, beagle, po, 0.2 mg/kg, Relative bioavailability calculated in portal vein) | bioavailability (in vivo; male, beagle, po, 0.2 mg/kg, Relative bioavailability in reference to oral) | bioavailability (in vivo; male, beagle, po, 0.2 mg/kg, pH 7, systemic bioavailability (F), mean) | bioavailability (in vivo; male, beagle, po, 0.2 mg/kg, systemic bioavailability (F), mean) | solubility in ethanol and methanol [2] | stability in aqueous solution ([2]; 1 mg/ml) | solid stability at high temperature and humidity ([2]; 37° C., 75% RH) | solubility in water ([2]; at various pHs) | hygroscopicity ([2]; crystalline form) | solid stable ([2]; up to temperatures of 45° C.) |
| --- | --- | --- | --- | --- | --- | --- | --- | --- | --- | --- | --- | --- | --- | --- | --- | --- | --- | --- | --- | --- |
| Nc1ncn([C@@H]2O[C@H](CO)[C@@H](O)[C@H]2O)c(=O)n1 [5-azacytidine] | more active when administered parenterally than orally | no elevation |  |  |  |  |  |  |  |  |  |  |  |  |  |  |  |  |  |  |
| OC[C@H]1O[C@@H](n2cnc3c2NC=NC[C@H]3O)C[C@@H]1O [pentostatin, 2′-deoxycoformycin] |  |  | 1.50 | 620% | 0.51 | −26% | 50% | 10,425 ± 6,652 (64) ng × min/ml | 5% | 0.34 µg·h/mL | 100% | 100% | 14.3% | 28% | slightly soluble | most stable at pH 7 or above and degrade quickly at pHs lower than 4 | loses the potency | freely soluble | not hygroscopic | at least 12 months |
